Calls of active or inactive are those of the source. The rule behind the calls is not given here.
Assays:
[1] = target: T1, Fatty acid-binding protein, liver (Homo sapiens, UniProt P07148); experiment: Inhibition of human FABP1 incubated for 3 mins by fluorescence based analysis
T1 sequence (P07148 whole entry): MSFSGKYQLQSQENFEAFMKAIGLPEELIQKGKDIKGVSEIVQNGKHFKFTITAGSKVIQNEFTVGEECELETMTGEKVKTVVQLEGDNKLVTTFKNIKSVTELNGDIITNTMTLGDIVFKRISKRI

[2] = target: T2, Fatty acid-binding protein, liver (Homo sapiens) (UniProt P07148); experiment: Inhibition of human FABP1 at 9 uM incubated for 3 mins by fluorescence based analysis relative to control
T2 sequence (whole entry): T1 sequence (P07148 whole entry)

[3] = Toxicity in high-fat diet induced obese male C57BL/6 mouse model assessed as effect on ALT level in serum at 20 mg/kg/day, po measured after 4 weeks by automatic biochemical analyzer; type: organism-based; details: in vivo, 672 h
Mus musculus [4] = experiment: Anti-NAFLD activity in high-fat diet induced obese male C57BL/6 mouse model assessed as improvement in oral glucose tolerance at 20 mg/kg, po administered everyday for 4 weeks by oral glucose tolerance test; type: functional, organism-based
Mus musculus [5] = experiment: Hepatoprotective activity in high-fat diet induced obese male C57BL/6 mouse model assessed as decrease in IL-1 beta level in liver at 20 mg/kg/day, po measured after 4 weeks by ELISA method; type: functional, organism-based
[6] = Toxicity in high-fat diet induced obese male C57BL/6 mouse model assessed as effect on TBA level in serum at 20 mg/kg/day, po measured after 4 weeks by automatic biochemical analyzer; type: organism-based; details: in vivo, 672 h
Mus musculus [7] = experiment: Hepatoprotective activity in high-fat diet induced obese male C57BL/6 mouse model assessed as reduction in TC level in serum at 20 mg/kg/day, po measured after 4 weeks by automatic biochemical analyzer; type: functional, organism-based
[8] = Toxicity in high-fat diet induced obese male C57BL/6 mouse model assessed as effect on ALP level in serum at 20 mg/kg/day, po measured after 4 weeks by automatic biochemical analyzer; type: organism-based; details: in vivo, 672 h
Mus musculus [9] = experiment: Hepatoprotective activity in high-fat diet induced obese male C57BL/6 mouse model assessed reduction in inflammatory cell infiltration at 20 mg/kg, po administered everyday for 4 weeks by H and E staining based analysis; type: functional, organism-based
[10] = Toxicity in high-fat diet induced obese male C57BL/6 mouse model assessed as effect on UA level in serum at 20 mg/kg/day, po measured after 4 weeks by automatic biochemical analyzer; type: organism-based; details: in vivo, 672 h
Mus musculus [11] = experiment: Hepatoprotective activity in high-fat diet induced obese male C57BL/6 mouse model assessed as decrease in IL-6 level in liver at 20 mg/kg/day, po measured after 4 weeks by ELISA method; type: functional, organism-based
Mus musculus [12] = experiment: Hepatoprotective activity in high-fat diet induced obese male C57BL/6 mouse model assessed reduction in hepatocyte steatosis at 20 mg/kg, po administered everyday for 4 weeks by H and E staining based analysis; type: functional, organism-based
Mus musculus [13] = experiment: Anti-NAFLD activity in high-fat diet induced obese male C57BL/6 mouse model assessed as reduction in AUC (0 to 90 mins) at 20 mg/kg, po administered everyday for 4 weeks by oral glucose tolerance test; type: functional, organism-based
[14] = target: Fatty acid-binding protein, adipocyte (Homo sapiens, UniProt P15090); experiment: Inhibition of FABP4 (unknown origin) incubated for 3 mins by fluorescence based analysis
Sequence of Fatty acid-binding protein, adipocyte (P15090 whole entry): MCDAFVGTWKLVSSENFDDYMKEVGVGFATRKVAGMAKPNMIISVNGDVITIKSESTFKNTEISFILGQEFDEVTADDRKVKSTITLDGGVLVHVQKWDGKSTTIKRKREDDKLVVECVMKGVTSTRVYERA

Mus musculus [15] = experiment: Hepatoprotective activity in high-fat diet induced obese male C57BL/6 mouse model assessed as decrease in MCP-1 level in liver at 20 mg/kg/day, po measured after 4 weeks by ELISA method; type: functional, organism-based
Mus musculus [16] = experiment: Hepatoprotective activity in high-fat diet induced obese male C57BL/6 mouse model assessed as reduction in LDL-C level in serum at 20 mg/kg/day, po measured after 4 weeks by automatic biochemical analyzer; type: functional, organism-based
Mus musculus [17] = experiment: Hepatoprotective activity in high-fat diet induced obese male C57BL/6 mouse model assessed as reduction in TG level in serum at 20 mg/kg/day, po measured after 4 weeks by automatic biochemical analyzer; type: functional, organism-based
[18] = Toxicity in high-fat diet induced obese male C57BL/6 mouse model assessed as effect on TBIL level in serum at 20 mg/kg/day, po measured after 4 weeks by automatic biochemical analyzer; type: organism-based; details: in vivo, 672 h
Mus musculus [19] = experiment: Hepatoprotective activity in high-fat diet induced obese male C57BL/6 mouse model assessed as decrease in TNF-alpha level in liver at 20 mg/kg/day, po measured after 4 weeks by ELISA method; type: functional, organism-based
[20] = Toxicity in high-fat diet induced obese male C57BL/6 mouse model assessed as effect on AST level in serum at 20 mg/kg/day, po measured after 4 weeks by automatic biochemical analyzer; type: organism-based; details: in vivo, 672 h

Row | SMILES | inhibition [2] | further results
1 | O=C(O)c1ccc(-c2ccccc2S(=O)(=O)N2CCN(S(=O)(=O)c3cccc4cccnc34)CC2)cc1 | 68.3% | IC50 [1]: 2.11 µM
2 | O=C(O)c1cccc(NS(=O)(=O)c2cccc3cccnc23)c1 | 8.28% | 
3 | O=C(O)CCCCCCCOc1ccc(NS(=O)(=O)c2cccc3cccnc23)cc1 | 72.5% | IC50 [1]: 2.44 µM
4 | O=C(O)CC[C@H](NC(=O)c1ccc(NS(=O)(=O)c2cccc3cccnc23)cc1)C(=O)O | 12.2% | 
5 | O=C(C1CCCN(S(=O)(=O)c2cccc3cccnc23)C1)N1CCNCC1 (stereo not given) | 11.5% | 
6 | O=C(O)CC(=O)N1CCN(C(=O)c2ccc(NS(=O)(=O)c3cccc4cccnc34)cc2)CC1 | 23.8% | 
7 | O=C(O)CCNS(=O)(=O)c1cccc2cccnc12 | 3.47% | 
8 | O=C(O)CC(NC(=O)C1CCCN(S(=O)(=O)c2cccc3cccnc23)C1)C(=O)O (stereo not given) | 12.1% | 
9 | O=C(O)CCCCCCCOc1cccc(NS(=O)(=O)c2cccc3cccnc23)c1 | 69.3% | IC50 [1]: 3.02 µM
10 | N#Cc1ccc(-c2ccccc2S(=O)(=O)N2CCN(S(=O)(=O)c3cccc4cccnc34)CC2)cc1 | 61.2% | IC50 [1]: 2.66 µM
11 | O=C(O)C1(C(=O)N2CCN(S(=O)(=O)c3cccc4cccnc34)CC2)CC1 | 30.5% | 
12 | O=S(=O)(c1ccccc1-c1cccc(O)c1)N1CCN(S(=O)(=O)c2cccc3cccnc23)CC1 | 78.1% | Activity [3]: Non-Toxic; Activity (Mus musculus [4]): Active; Activity (Mus musculus [5]): Active; Activity [6]: Non-Toxic; Activity (Mus musculus [7]): Active; Activity [8]: Non-Toxic; Activity (Mus musculus [9]): Active; Activity [10]: Non-Toxic; Activity (Mus musculus [11]): Active; IC50 [1]: 1.18 µM; Activity (Mus musculus [12]): Active; Activity (Mus musculus [13]): Active; IC50 [14]: > 80 µM; Activity (Mus musculus [15]): Active; Activity (Mus musculus [16]): Active; Activity (Mus musculus [17]): Active; Activity [18]: Non-Toxic; Activity (Mus musculus [19]): Active; Activity [20]: Non-Toxic
13 | O=C(c1ccc(NS(=O)(=O)c2cccc3cccnc23)cc1)N1CCN(C(=O)C2(C(=O)O)CC2)CC1 | 29.9% | 
14 | O=C(O)CCC(NC(=O)N1CCN(S(=O)(=O)c2cccc3cccnc23)CC1)C(=O)O (stereo not given) | 31.6% | 
15 | O=C(O)CNC(=O)CNS(=O)(=O)c1cccc2cccnc12 | 10.1% | 
16 | O=C(O)CC(=O)N1CCN(S(=O)(=O)c2ccc(-c3ccccc3)cc2)CC1 | 13.4% | 
17 | O=C(O)CNS(=O)(=O)c1cccc2cccnc12 | 4.26% | 

Row | SMILES | inhibition [2] | further results
18 | O=C(O)C[C@H](NC(=O)c1ccc(NS(=O)(=O)c2cccc3cccnc23)cc1)C(=O)O | 13.1% | 
19 | CC1CN(S(=O)(=O)c2cccc3cccnc23)CCN1C(=O)CC(=O)O (stereo not given) | 20.3% | 
20 | O=S(=O)(c1ccc(-c2ccccc2)cc1)N1CCNCC1 | 0.18% | 
21 | O=C(O)C1CCCN(S(=O)(=O)c2cccc3cccnc23)C1 (stereo not given) | 13.7% | 
22 | O=C(O)CCC(NC(=O)C1CCCN(S(=O)(=O)c2cccc3cccnc23)C1)C(=O)O (stereo not given) | 10.3% | 
23 | O=C(O)CNC(=O)c1ccc(NS(=O)(=O)c2cccc3cccnc23)cc1 | 16.1% | 
24 | O=S(=O)(c1ccccc1-c1ccc(F)cc1)N1CCN(S(=O)(=O)c2cccc3cccnc23)CC1 | 52.7% | IC50 [1]: 5.66 µM
25 | O=C(O)CCCCCCCOc1cccc(NS(=O)(=O)c2ccc(-c3ccccc3)cc2)c1 | 73.5% | IC50 [1]: 3.24 µM
26 | O=C(O)c1ccc(NS(=O)(=O)c2cccc3cccnc23)cc1 | 1.28% | 
27 | Cc1cc(F)ccc1-c1ccccc1S(=O)(=O)N1CCN(S(=O)(=O)c2cccc3cccnc23)CC1 | 63.8% | IC50 [1]: 6.11 µM
28 | O=C(O)C1(C(=O)N2CCN(S(=O)(=O)c3ccc(-c4ccccc4)cc3)CC2)CC1 | 21.1% | 
29 | O=C(O)CNC(=O)CNC(=O)c1ccc(NS(=O)(=O)c2cccc3cccnc23)cc1 | 11.9% | 
30 | O=C(O)C1(c2cccc(-c3ccc(OCc4c(-c5c(Cl)cccc5Cl)noc4C4CC4)cc3)c2)CC1 |  | IC50 [14]: 6.2 µM
31 | O=C(O)CCNC(=O)c1ccc(NS(=O)(=O)c2cccc3cccnc23)cc1 | 15.3% | 
32 | O=C(O)CC(=O)N1CCN(S(=O)(=O)c2cccc3cccnc23)CC1 | 26.2% | 
33 | CSCCC(NS(=O)(=O)c1cccc2cccnc12)C(=O)O (stereo not given) | 20.9% | 
34 | CCc1c(-c2ccccc2)c(-c2ccccc2)nn1-c1ccccc1-c1cccc(OCC(=O)O)c1 |  | IC50 [1]: 2.71 µM

— ChEMBL document CHEMBL5608210 (Eur J Med Chem, 2024)
